# Results from ChEMBL document CHEMBL1123423, “Tranexamic acid derivatives with enhanced absorption” (J Med Chem, 1986).
# Experiments:
# [1] = test system: Rattus norvegicus; assay: Compound was evaluated for percent tranexamic acid recovered in rat urine within 24 hr after oral administration of 0.1 mmol/kg of body weight per mole of pro drug; format: ADME, organism-based; conditions: in vivo
# [2] = Half-life in phosphate buffer at pH 1.2; format: ADME
# [3] = Half-life in phosphate buffer at pH 7.5; format: ADME
# [4] = test system: Rattus norvegicus; assay: Compound was evaluated for percent tranexamic acid recovered in rat urine within 24 hr after oral administration of per moiety tranexamic acid; format: ADME, organism-based; conditions: in vivo
# [5] = Half-life in buffer at pH 1.2; format: ADME
# [6] = Half-life in buffer at pH 7.5; format: ADME
# [7] = Half-life in 90% human heparinized plasma.; format: ADME
# [8] = test system: Rattus norvegicus; assay: Compound was evaluated for percent recovery of tranexamic acid in urine from rat within 24 hr after oral administration of the dose […] of body weight; format: ADME, organism-based; conditions: in vivo
# [9] = test system: Rattus norvegicus; assay: Compound was evaluated for percent recovery of tranexamic acid in urine from rat within 24 hr after oral administration of the dose 1 mmol/kg of body weight; format: ADME, organism-based; conditions: in vivo
# [10] = test system: Rattus norvegicus; assay: Compound was evaluated for percent tranexamic acid recovered in rat urine within 24 hr after oral administration of 0.1 mmol/kg of body weight.; format: ADME, organism-based; conditions: in vivo
Absorption [1] [%],Absorption [4] [%],half-life [5] [h],half-life [6] [h],half-life [7] [h],SMILES,other results
67,–,–,–,–,Cc1oc(=O)oc1COC(=O)[C@H]1CC[C@H](CN)CC1.Cl,half-life [2]: 25 h; half-life [3]: 2 h
42,21,–,–,–,CC(OC(=O)[C@H]1CC[C@H](CN)CC1)OC(=O)[C@H]1CC[C@](C)(CN)CC1.Cl.Cl (stereo partly specified),–
54,27,38,6.7,–,CN(C)C(=O)C(OC(=O)[C@H]1CC[C@H](CN)CC1)OC(=O)[C@H]1CC[C@](C)(CN)CC1.Cl.Cl (stereo partly specified),–
54,–,18,36,0.00833,CC(C)C(=O)OCOC(=O)[C@H]1CC[C@H](CN)CC1.Cl,–
35,–,–,–,–,Cl.NCc1ccc(C(=O)OCOC(=O)[C@H]2CC[C@H](CN)CC2)cc1,–
34,17,–,–,–,CCN(CC)C(=O)C(OC(=O)[C@H]1CC[C@H](CN)CC1)OC(=O)[C@H]1CC[C@](C)(CN)CC1.Cl.Cl (stereo partly specified),–
71,–,22,140,–,CC(OC(=O)C(C)C)OC(=O)[C@H]1CC[C@H](CN)CC1.Cl (stereo partly specified),–
50,25,31,26,0.025,C[C@]1(CN)CC[C@H](C(=O)OCOC(=O)[C@H]2CC[C@H](CN)CC2)CC1.Cl.Cl,Recovery [8]: 25%; Recovery [9]: 32%
26,13,29,70,0.1,CCC(OC(=O)[C@H]1CC[C@H](CN)CC1)OC(=O)[C@H]1CC[C@](C)(CN)CC1.Cl.Cl (stereo partly specified),–
44,–,–,–,–,Cl.NC[C@H]1CC[C@H](C(=O)OC2OC(=O)c3ccccc32)CC1 (stereo partly specified),Recovery [8]: 44%; Recovery [9]: 54%; half-life [3]: 5 h
54,27,–,–,–,C[C@]1(CN)CC[C@H](C(=O)OCc2oc(=O)oc2COC(=O)[C@H]2CC[C@H](CN)CC2)CC1.Cl.Cl,–
43,–,58,144,–,CC(C)OC(=O)OC(C)OC(=O)[C@H]1CC[C@H](CN)CC1.Cl (stereo partly specified),Recovery [8]: 43%; Recovery [9]: 86%
43,–,–,–,–,CC(OC(=O)C(C)(C)C)OC(=O)[C@H]1CC[C@H](CN)CC1.Cl (stereo partly specified),–
36,–,164,147,0.0333,CC(C)(C)C(=O)OCOC(=O)[C@H]1CC[C@H](CN)CC1.Cl,Recovery [8]: 36%; Recovery [9]: 58%
59,–,14,68,0.1,CC(=O)OC(C)OC(=O)[C@H]1CC[C@H](CN)CC1.Cl (stereo partly specified),–
–,–,–,–,4,CCOC(=O)[C@H]1CC[C@H](CN)CC1.Cl,Absorption [10]: 92%
22,–,2,10,–,CC(C)(C)C(=O)NCOC(=O)[C@H]1CC[C@H](CN)CC1.Cl,–
62,31,11,0.9,–,CCOC(=O)C(OC(=O)[C@H]1CC[C@H](CN)CC1)OC(=O)[C@H]1CC[C@](C)(CN)CC1.Cl.Cl (stereo partly specified),–
28,–,–,–,–,Cl.NC[C@H]1CC[C@H](C(=O)Oc2ccc(CCC(=O)O)cc2)CC1 [CETRAXATE HYDROCHLORIDE],–
50,–,54,90,0.025,CCOC(=O)OC(C)OC(=O)[C@H]1CC[C@H](CN)CC1.Cl (stereo partly specified),Recovery [8]: 50%; Recovery [9]: 62%
–,–,–,–,–,NC[C@H]1CC[C@H](C(=O)O)CC1 [TRANEXAMIC ACID],Recovery [9]: 11%; Absorption [10]: 22%
